Data taken from patent US20260201008A1, “SECRETIN-DERIVED GLP1R SELECTIVE AGONISTS” (GUBRA A/S, priority 2023, published 2026).
Like-named read-outs stand apart in the source and are kept apart here. Numbered stars: 1 amine (or outer) side, 2 acyl side, 3 side chain; on linkers, the order of the positions; unused ones are H or OH. Square brackets hold non-standard residues; d marks the D form. Side chains are listed from the residue outwards. Peptide text beside a SMILES is read from it. * marks the point of attachment. C20 diacid = O=C(O)CCCCCCCCCCCCCCCCCCC(=O)*; γGlu = O=C(O)[C@H](CCC(=O)[*:2])N[*:1]; AEEA = NCCOCCOCC(=O)O; Aib = CC(C)(N)C(=O)O

Key:
GLP1R = GLP1R (Homo sapiens, UniProt P43220); experiment: hGLP1R potency, cAMP accumulation in CHO-K1 cells stably overexpressing hGLP1R; format: cell-based; design: host or cells: CHO-K1; conditions: for EC50: cAMP accumulation, CHO-K1 cells overexpressing hGLP1R; for SCTR EC50/GLP1R EC50 ratio: selectivity for hGLP1R over hSCTR, cAMP accumulation in CHO-K1 cells; for Selectivity: SCTR EC50/GLP1R EC50 ratio
Sequence of GLP1R (P43220 24-463): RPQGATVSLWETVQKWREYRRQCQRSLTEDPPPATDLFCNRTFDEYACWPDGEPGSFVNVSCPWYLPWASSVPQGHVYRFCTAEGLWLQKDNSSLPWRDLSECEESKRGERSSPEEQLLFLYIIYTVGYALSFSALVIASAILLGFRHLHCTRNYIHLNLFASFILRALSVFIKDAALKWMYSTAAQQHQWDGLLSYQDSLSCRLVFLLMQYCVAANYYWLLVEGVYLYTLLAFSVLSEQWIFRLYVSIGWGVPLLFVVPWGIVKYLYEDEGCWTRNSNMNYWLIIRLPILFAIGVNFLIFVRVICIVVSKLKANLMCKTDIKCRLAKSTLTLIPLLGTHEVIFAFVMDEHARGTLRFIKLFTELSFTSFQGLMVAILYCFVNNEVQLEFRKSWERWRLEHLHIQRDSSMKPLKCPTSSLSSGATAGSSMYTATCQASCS
Method in brief: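 EC50 derives from variable-slope nonlinear regression of cAMP HTRF signal, with purified peptides tested as 11 three-fold dilutions in duplicate. Assay: hGLP1R-overexpressing CHO-K1 cells, 0.5 mM IBMX, 0.05% casein in DPBS, 30 min room-temperature stimulation, GLP-1(7-36) as reference agonist.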

SCTR = SCTR (Homo sapiens, UniProt P47872); experiment: hSCTR potency, cAMP accumulation in CHO-K1 cells stably overexpressing hSCTR; format: cell-based; design: alternatively Euroscreen ES-712-AF; FAST-0161L; host or cells: CHO-K1; conditions: cAMP accumulation, CHO-K1 cells overexpressing hSCTR
Sequence of SCTR (P47872 23-440): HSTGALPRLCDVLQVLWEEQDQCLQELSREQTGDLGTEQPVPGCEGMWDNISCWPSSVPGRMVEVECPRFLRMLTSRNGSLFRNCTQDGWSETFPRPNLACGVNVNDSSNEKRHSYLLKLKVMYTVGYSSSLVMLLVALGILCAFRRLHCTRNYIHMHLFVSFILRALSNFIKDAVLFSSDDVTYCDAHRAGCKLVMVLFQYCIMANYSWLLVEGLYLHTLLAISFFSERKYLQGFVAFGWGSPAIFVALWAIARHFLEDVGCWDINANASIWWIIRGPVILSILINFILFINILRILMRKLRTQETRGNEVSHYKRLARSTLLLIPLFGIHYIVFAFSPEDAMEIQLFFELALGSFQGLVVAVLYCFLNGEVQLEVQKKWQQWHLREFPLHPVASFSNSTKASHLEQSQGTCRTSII
Method in brief: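 EC50 derived from variable-slope nonlinear regression on 11-point, 3-fold series run in duplicate (crude peptides: 5 points, 10-fold, n=1). Compound stimulation lasted 30 min at room temperature in casein/IBMX-containing DPBS (0.05%, 0.5 mM), 2000 cells/well; cAMP detected by time-resolved FRET after one hour.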

[1] = Fibril formation of crude library peptides (Thioflavin T); format: physicochemical; design: key: average ThT fluorescence emission at 480 nm (ex 450 nm), raw units; conditions: Physical stability of peptides
Method in brief: (§1)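 Turbidity is the absorbance at 600 nm, taken before heating. Fibril signal is the mean ThT emission at 480 nm (450 nm excitation), read every 10 min over 72 h at 40° C with 700 rpm shaking between reads. Peptides at 267 μM, pH 4.0 acetate or pH 7.0 phosphate buffer (50 mM), 4 μM ThT final.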

[2] = Turbidity of crude library peptides (absorbance at 600 nm); format: physicochemical; conditions: Physical stability of peptides
Method in brief: as §1

[3] = read-out: hGLP1R pEC50 (converted)
[4] = read-out: hSCTR pEC50 (converted)
[5] = read-out: pEC50 hGLPR1 (converted)
[6] = read-out: pEC50 hSCTR (converted)

Row | Compound | EC50 (GLP1R; [3]) | SCTR EC50/GLP1R EC50 ratio (GLP1R) | EC50 (SCTR; [4]) | Fibril formation [1] | Turbidity (pH 7) [2] | Selectivity (GLP1R) | EC50 (GLP1R; [5]) | EC50 (SCTR; [6])
1 | CC(C)C[C@H](NC(=O)[C@H](Cc1ccccc1)NC(=O)[C@H](CCCNC(=N)N)NC(=O)[C@H](CCC(N)=O)NC(=O)[C@H](CO)NC(=O)[C@H](C)NC(=O)[C@H](C)NC(=O)[C@H](Cc1ccccc1)NC(=O)[C@H](CCC(=O)O)NC(=O)[C@H](CCCCNC(=O)COCCOCCNC(=O)COCCOCCNC(=O)CC[C@H](NC(=O)CCCCCCCCCCCCCCCCCCC(=O)O)C(=O)O)NC(=O)[C@H](CC(C)C)NC(=O)[C@@H](NC(=O)[C@H](CO)NC(=O)[C@@H](NC(=O)[C@H](CC(=O)O)NC(=O)[C@H](CO)NC(=O)[C@@H](NC(=O)[C@H](Cc1ccccc1)NC(=O)[C@@H](NC(=O)CNC(=O)[C@H](CCC(=O)O)NC(=O)C(C)(C)NC(=O)[C@@H](N)Cc1c[nH]cn1)[C@@H](C)O)[C@@H](C)O)C(C)C)C(C)C)C(=O)N[C@@H](CCC(=O)O)C(=O)N[C@@H](Cc1c[nH]cn1)C(=O)N[C@@H](CC(C)C)C(=O)N[C@H](C(N)=O)C(C)C [compound 92] (H-H[Aib]EGTFTSDVSVLK([AEEA-AEEA-γGlu-C20 diacid])EFAASQRFLEHLV-NH2) | 0.0794 nM | 20773 | 1580 nM | 260000 | 0.14 |  |  | 
2 | CC(C)C[C@H](NC(=O)[C@H](CCC(=O)O)NC(=O)[C@H](CCCCNC(=O)COCCOCCNC(=O)COCCOCCNC(=O)CC[C@H](NC(=O)CCCCCCCCCCCCCCCCCCC(=O)O)C(=O)O)NC(=O)[C@H](CC(C)C)NC(=O)[C@H](CCCNC(=N)N)NC(=O)[C@H](CO)NC(=O)[C@@H](NC(=O)[C@H](CC(=O)O)NC(=O)[C@H](CO)NC(=O)[C@@H](NC(=O)[C@H](Cc1ccccc1)NC(=O)[C@@H](NC(=O)CNC(=O)[C@H](CCC(=O)O)NC(=O)C(C)(C)NC(=O)[C@@H](N)Cc1c[nH]cn1)[C@@H](C)O)[C@@H](C)O)C(C)C)C(=O)N[C@@H](C)C(=O)N[C@@H](C)C(=O)N[C@@H](CCC(N)=O)C(=O)N[C@@H](CCC(N)=O)C(=O)N[C@@H](CCCNC(=N)N)C(=O)N[C@@H](Cc1ccccc1)C(=O)N[C@@H](CC(C)C)C(=O)N[C@@H](CCC(=O)O)C(=O)N[C@@H](Cc1c[nH]cn1)C(=O)N[C@@H](CC(C)C)C(=O)N[C@H](C(N)=O)C(C)C [compound 3] (H-H[Aib]EGTFTSDVSRLK([AEEA-AEEA-γGlu-C20 diacid])ELAAQQRFLEHLV-NH2) |  |  |  | 13795 | 0.08 | 4851 | 0.0158 nM | 79.4 nM
3 | CC(C)C[C@H](NC(=O)[C@H](Cc1ccccc1)NC(=O)[C@H](CCCNC(=N)N)NC(=O)[C@H](CCC(N)=O)NC(=O)[C@H](CC(C)C)NC(=O)C(C)(C)NC(=O)[C@H](C)NC(=O)[C@H](CCC(=O)O)NC(=O)[C@H](CCC(=O)O)NC(=O)[C@H](CCCCNC(=O)COCCOCCNC(=O)COCCOCCNC(=O)CC[C@H](NC(=O)CCCCCCCCCCCCCCCCCCC(=O)O)C(=O)O)NC(=O)[C@H](CC(C)C)NC(=O)[C@H](Cc1ccc(O)cc1)NC(=O)[C@H](CO)NC(=O)[C@@H](NC(=O)[C@H](CC(=O)O)NC(=O)[C@H](CO)NC(=O)[C@@H](NC(=O)[C@H](Cc1ccccc1)NC(=O)[C@@H](NC(=O)CNC(=O)[C@@H](NC(=O)C(C)(C)NC(=O)[C@@H](N)Cc1c[nH]cn1)C(C)C)[C@@H](C)O)[C@@H](C)O)C(C)C)C(=O)N[C@@H](CCC(=O)O)C(=O)N[C@@H](Cc1c[nH]cn1)C(=O)N[C@@H](CC(C)C)C(=O)N[C@H](C(N)=O)C(C)C [compound 155] (H-H[Aib]VGTFTSDVSYLK([AEEA-AEEA-γGlu-C20 diacid])EEA[Aib]LQRFLEHLV-NH2) | 0.0126 nM | 1853532 | 25100 nM | 4368 | 0.08 |  |  | 
4 | CC(C)C[C@H](NC(=O)[C@H](Cc1ccccc1)NC(=O)[C@H](CCCNC(=N)N)NC(=O)[C@H](CCC(N)=O)NC(=O)[C@H](CO)NC(=O)[C@H](C)NC(=O)[C@H](C)NC(=O)[C@H](CCC(=O)O)NC(=O)[C@H](CCC(=O)O)NC(=O)[C@H](CCCCNC(=O)COCCOCCNC(=O)COCCOCCNC(=O)CC[C@H](NC(=O)CCCCCCCCCCCCCCCCCCC(=O)O)C(=O)O)NC(=O)[C@H](CC(C)C)NC(=O)[C@H](Cc1ccccc1)NC(=O)[C@H](CO)NC(=O)[C@@H](NC(=O)[C@H](CC(=O)O)NC(=O)[C@H](CO)NC(=O)[C@@H](NC(=O)[C@H](Cc1ccccc1)NC(=O)[C@@H](NC(=O)CNC(=O)[C@H](CCC(=O)O)NC(=O)C(C)(C)NC(=O)[C@@H](N)Cc1c[nH]cn1)[C@@H](C)O)[C@@H](C)O)C(C)C)C(=O)N[C@@H](CCC(=O)O)C(=O)N[C@@H](Cc1c[nH]cn1)C(=O)N[C@@H](CC(C)C)C(=O)N[C@H](C(N)=O)C(C)C [compound 38] (H-H[Aib]EGTFTSDVSFLK([AEEA-AEEA-γGlu-C20 diacid])EEAASQRFLEHLV-NH2) |  |  |  | 38424 | 0.09 | 35785 | 0.0316 nM | 1000 nM
5 | CC(C)C[C@H](NC(=O)[C@H](Cc1ccccc1)NC(=O)[C@H](CCCNC(=N)N)NC(=O)[C@H](CCC(N)=O)NC(=O)[C@H](CCC(=O)O)NC(=O)[C@H](C)NC(=O)[C@H](C)NC(=O)[C@@H](NC(=O)[C@H](CCC(=O)O)NC(=O)[C@H](CCCCNC(=O)COCCOCCNC(=O)COCCOCCNC(=O)CC[C@H](NC(=O)CCCCCCCCCCCCCCCCCCC(=O)O)C(=O)O)NC(=O)[C@H](CC(C)C)NC(=O)[C@@H](NC(=O)[C@H](CO)NC(=O)[C@@H](NC(=O)[C@H](CC(=O)O)NC(=O)[C@H](CO)NC(=O)[C@@H](NC(=O)[C@H](Cc1ccccc1)NC(=O)[C@@H](NC(=O)CNC(=O)[C@H](CCC(=O)O)NC(=O)C(C)(C)NC(=O)[C@@H](N)Cc1c[nH]cn1)[C@@H](C)O)[C@@H](C)O)C(C)C)[C@@H](C)O)[C@@H](C)O)C(=O)N[C@@H](CCC(=O)O)C(=O)N[C@@H](Cc1c[nH]cn1)C(=O)N[C@@H](CC(C)C)C(=O)N[C@H](C(N)=O)C(C)C [compound 42] (H-H[Aib]EGTFTSDVSTLK([AEEA-AEEA-γGlu-C20 diacid])ETAAEQRFLEHLV-NH2) |  |  |  | 6253 | 0.08 | 209363 | 0.0158 nM | 3160 nM
6 | CC(C)C[C@H](NC(=O)[C@H](Cc1ccccc1)NC(=O)[C@H](CCCNC(=N)N)NC(=O)[C@H](CCC(N)=O)NC(=O)[C@H](CCC(N)=O)NC(=O)[C@H](C)NC(=O)[C@H](C)NC(=O)[C@@H](NC(=O)[C@H](CCC(=O)O)NC(=O)[C@H](CCCCNC(=O)COCCOCCNC(=O)COCCOCCNC(=O)CC[C@H](NC(=O)CCCCCCCCCCCCCCCCCCC(=O)O)C(=O)O)NC(=O)[C@H](CC(C)C)NC(=O)[C@H](CCCNC(=N)N)NC(=O)[C@H](CO)NC(=O)[C@@H](NC(=O)[C@H](CC(=O)O)NC(=O)[C@H](CO)NC(=O)[C@@H](NC(=O)[C@H](Cc1ccccc1)NC(=O)[C@@H](NC(=O)CNC(=O)[C@H](CCC(=O)O)NC(=O)C(C)(C)NC(=O)[C@@H](N)Cc1c[nH]cn1)[C@@H](C)O)[C@@H](C)O)C(C)C)[C@@H](C)O)C(=O)N[C@@H](CCC(=O)O)C(=O)N[C@@H](Cc1c[nH]cn1)C(=O)N[C@@H](CC(C)C)C(=O)N[C@H](C(N)=O)C(C)C [compound 21] (H-H[Aib]EGTFTSDVSRLK([AEEA-AEEA-γGlu-C20 diacid])ETAAQQRFLEHLV-NH2) |  |  |  | 193729 | 0.08 | 17906 | 0.0126 nM | 200 nM
7 | CC(C)C[C@H](NC(=O)[C@H](CCC(=O)O)NC(=O)[C@H](CCCCNC(=O)COCCOCCNC(=O)COCCOCCNC(=O)CC[C@H](NC(=O)CCCCCCCCCCCCCCCCCCC(=O)O)C(=O)O)NC(=O)[C@H](CC(C)C)NC(=O)[C@H](Cc1ccc(O)cc1)NC(=O)[C@H](CO)NC(=O)[C@@H](NC(=O)[C@H](CC(=O)O)NC(=O)[C@H](CO)NC(=O)[C@@H](NC(=O)[C@H](Cc1ccccc1)NC(=O)[C@@H](NC(=O)CNC(=O)[C@H](CCC(=O)O)NC(=O)C(C)(C)NC(=O)[C@@H](N)Cc1c[nH]cn1)[C@@H](C)O)[C@@H](C)O)C(C)C)C(=O)N[C@@H](C)C(=O)N[C@@H](C)C(=O)N[C@@H](C)C(=O)N[C@@H](CCC(N)=O)C(=O)N[C@@H](CCCNC(=N)N)C(=O)N[C@@H](Cc1ccccc1)C(=O)N[C@@H](CC(C)C)C(=O)N[C@@H](CCC(=O)O)C(=O)N[C@@H](Cc1c[nH]cn1)C(=O)N[C@@H](CC(C)C)C(=O)N[C@H](C(N)=O)C(C)C [compound 86] (H-H[Aib]EGTFTSDVSYLK([AEEA-AEEA-γGlu-C20 diacid])ELAAAQRFLEHLV-NH2) | 0.2 nM | 19815 | 3980 nM | 9344 | 0.08 |  |  | 
